In patent publication US20180140572A1, “COMPOSITIONS COMPRISING A CANCER STEMNESS INHIBITOR AND AN IMMUNOTHERAPEUTIC AGENT FOR USE IN TREATING CANCER” (Boston Biomedical, Inc., priority 2015, published 2018):

Assays:
NANOG, CD44, and CD133 = assay: Stemness marker expression in CT26 tumors (immunofluorescence); format: in vivo, mouse; settings: basal and anti-PD-1 antibody-induced
Procedure: At the end of treatment, tumors were harvested from euthanized mice. Part of the dissected tumors were fixed overnight in 3.7% or 10% neutral buffered formaldehyde at 4° C., and then paraffin embedded, cut to 4-5 micron sections, and affixed onto positively charged slides. After baking and deparaffinization, the slides with tumor or control tissues were incubated in a 10 mM sodium citrate solution pH=6.0 for antigen retrieval at 98° C. Afterwards, slides were probed with primary antibodies against P-STAT3 (Tyr705) (rabbit, Cell Signaling, 1:100), β-CATENIN (mouse, Santa Cruz, 1:400), IL-6 (mouse, Novus Biol., 1:100), PD-L1 (rabbit, Cell Signaling, 1:100), PCNA (mouse, Santa Cruz, 1:5000), CD8a (rabbit, Santa Cruz, 1:30), CD44 (rat, BioLegend, 1:50), CD44 (mouse, Cell Signaling, 1:100), CD133 (mouse, Miltenyi, 1:100), IDO1 (mouse, Millipore 1:100), or/and CD3 (rabbit, Abcam, 1:100) at 4° C. overnight, and then AlexaFluor fluorescent dye-conjugated secondary antibodies (Invitrogen, 1:300 or 1:500) at room temperature for one hour. After mounting in ProLong mounting medium containing DAPI (Invitrogen), the slides were examined on a Zeiss Axio Imager M2 upright fluorescence microscope with a 20× objective and analyzed with Zen software.

B-cell proliferation = B-cell proliferation in lymph node adjacent to xenograft B16F10 tumor (PCNA staining); format: in vivo, mouse
Text: The tissues were stained with PCNA.

[1] = test system: tumor-infiltrating T cells (TILs); assay: Tumor-infiltrating T cells in CT26 tumors (CD3 immunofluorescence); format: in vivo, mouse; settings: vs control tumors
Text: All BALB/c mice (Taconic, Hudson, N.Y., USA) were housed in Association for Assessment and Accreditation of Laboratory Animal Care approved facilities in static microisolator cages. Murine MSS-status colon carcinoma CT26 cells (ATCC CRL-2639) and murine breast carcinoma cells 4T1 (ATCC CRL-2539) were purchased from American Type Culture Collection (ATCC, Manassas, Va., USA), and grown in RPMI-1640 medium (ATCC) supplemented with 10% heat-inactivated fetal calf serum. After harvesting during exponential growth, tumors were initiated by subcutaneously implanting 3×10^5 CT26 tumor cells into the right dorsal flank of each 8-12 week old female BALB/c mouse. […] Body weight and clinical signs were monitored throughout the course of the treatment in accordance with the Institutional Animal Care and Use Committee approved protocols. Drug efficacy was analyzed by measuring tumor volume in mm^3 calculated by multiplying 0.5×width^2×length. […]
At the end of treatment, tumors were harvested from euthanized mice. […] After mounting in ProLong mounting medium containing DAPI (Invitrogen), the slides were examined on a Zeiss Axio Imager M2 upright fluorescence microscope with a 20× objective and analyzed with Zen software.

STAT3 pathway = settings: read-out: STAT3 pathway activity cellular IC50; cited from earlier work

SMILES: CC(=O)c1cc2c(o1)C(=O)c1ccccc1C2=O [BBI608, 2-acetylnaphtho[2,3-b]furan-4,9-dione]
- NANOG, CD44, and CD133 expression (NANOG, CD44, and CD133): reduced
- B-cell proliferation in lymph node adjacent to tumor (B-cell proliferation): multiple centers of B-cell proliferation
- number of tumor-infiltrating T cells (TILs) [1]: tended to increase
- IC50 (STAT3 pathway): ~250 nM
